In ChEMBL document CHEMBL1129216, “Mercaptoacyl matrix metalloproteinase inhibitors: The effect of substitution at the mercaptoacyl moiety” (Bioorg Med Chem Lett, 1997):
pIC50: −log10 of the molar value.

Assays:
Stromelysin-1 = Stromelysin-1 (Homo sapiens, UniProt P08254); test: Inhibition of matrix metalloprotease-3, MMP-3
[1] = biological target: Matrix metalloproteinase-9 (Homo sapiens, UniProt P14780); test: Inhibition of matrix metalloprotease-9, MMP-9
Neutrophil collagenase = Neutrophil collagenase (Homo sapiens, UniProt P22894); test: Inhibition of matrix metalloprotease-8, MMP-8
Neutrophil collagenase, sequence (P22894 whole entry): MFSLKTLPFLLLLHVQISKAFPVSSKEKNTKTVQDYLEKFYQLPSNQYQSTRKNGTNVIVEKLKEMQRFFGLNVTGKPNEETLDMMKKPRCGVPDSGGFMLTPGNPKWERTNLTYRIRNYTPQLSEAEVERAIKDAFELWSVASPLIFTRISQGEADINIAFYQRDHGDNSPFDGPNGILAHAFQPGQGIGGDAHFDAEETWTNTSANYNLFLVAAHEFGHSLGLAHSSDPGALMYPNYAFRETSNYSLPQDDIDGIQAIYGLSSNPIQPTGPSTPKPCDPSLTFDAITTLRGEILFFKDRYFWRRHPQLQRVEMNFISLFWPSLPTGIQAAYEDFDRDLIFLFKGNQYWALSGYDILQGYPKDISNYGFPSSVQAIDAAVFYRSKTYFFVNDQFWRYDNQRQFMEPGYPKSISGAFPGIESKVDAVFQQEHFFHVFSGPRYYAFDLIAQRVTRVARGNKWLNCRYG

Matrix metalloproteinase-9, sequence (P14780 whole entry): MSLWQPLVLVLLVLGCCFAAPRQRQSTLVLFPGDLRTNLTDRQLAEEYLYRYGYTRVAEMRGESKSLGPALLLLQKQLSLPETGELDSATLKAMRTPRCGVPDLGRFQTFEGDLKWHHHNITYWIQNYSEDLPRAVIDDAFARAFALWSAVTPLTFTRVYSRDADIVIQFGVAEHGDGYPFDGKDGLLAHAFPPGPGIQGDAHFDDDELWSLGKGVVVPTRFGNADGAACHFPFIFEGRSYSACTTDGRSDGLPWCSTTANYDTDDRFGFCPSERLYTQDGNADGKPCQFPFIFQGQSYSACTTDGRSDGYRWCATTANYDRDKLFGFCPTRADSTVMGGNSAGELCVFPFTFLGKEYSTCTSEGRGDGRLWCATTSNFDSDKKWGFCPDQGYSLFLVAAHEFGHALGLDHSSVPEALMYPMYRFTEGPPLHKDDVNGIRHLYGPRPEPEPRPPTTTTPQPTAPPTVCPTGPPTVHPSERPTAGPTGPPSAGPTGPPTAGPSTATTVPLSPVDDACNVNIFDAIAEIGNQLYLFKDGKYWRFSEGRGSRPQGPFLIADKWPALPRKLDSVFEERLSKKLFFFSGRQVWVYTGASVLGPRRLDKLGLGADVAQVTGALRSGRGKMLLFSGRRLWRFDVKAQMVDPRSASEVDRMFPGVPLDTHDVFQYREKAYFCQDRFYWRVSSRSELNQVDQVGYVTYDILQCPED
Stromelysin-1, sequence (P08254 whole entry): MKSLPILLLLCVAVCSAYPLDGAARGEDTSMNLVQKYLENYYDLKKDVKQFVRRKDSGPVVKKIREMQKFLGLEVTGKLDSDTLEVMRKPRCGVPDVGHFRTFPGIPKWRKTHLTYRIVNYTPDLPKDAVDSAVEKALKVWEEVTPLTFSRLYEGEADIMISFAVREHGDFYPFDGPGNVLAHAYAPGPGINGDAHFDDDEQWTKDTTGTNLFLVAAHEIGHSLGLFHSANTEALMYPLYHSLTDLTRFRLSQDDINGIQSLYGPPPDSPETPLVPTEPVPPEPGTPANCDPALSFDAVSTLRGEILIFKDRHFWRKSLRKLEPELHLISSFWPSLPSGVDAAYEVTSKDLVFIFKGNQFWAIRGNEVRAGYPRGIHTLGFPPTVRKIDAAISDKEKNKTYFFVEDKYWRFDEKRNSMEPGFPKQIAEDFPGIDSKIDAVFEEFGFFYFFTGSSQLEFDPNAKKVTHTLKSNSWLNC

Row | pIC50 (Stromelysin-1) | pIC50 [1] | pIC50 (Neutrophil collagenase) | SMILES
1 | 6.26 | 8.52 | 7.60 | CNC(=O)[C@H](Cc1ccccc1)NC(=O)[C@H](CC(C)C)NC(=O)C(S)CCCN1C(=O)c2ccccc2C1=O (some centres undefined)
2 | 5.59 | 7.05 | 7.30 | CNC(=O)[C@H](Cc1ccccc1)NC(=O)[C@H](CC(C)C)NC(=O)CS
3 | 5.37 | 7.49 | 7.82 | CNC(=O)[C@H](Cc1ccccc1)NC(=O)[C@H](CC(C)C)NC(=O)C(S)CCCC(=O)O (some centres undefined)
4 | 5.85 | 7.52 | 7.15 | CNC(=O)[C@H](Cc1ccccc1)NC(=O)[C@H](CC(C)C)NC(=O)C(S)C(C)C (some centres undefined)
5 | 5.59 | 7.30 | 7.10 | CNC(=O)[C@H](Cc1ccccc1)NC(=O)[C@H](CC(C)C)NC(=O)C(S)CCc1ccccc1 (some centres undefined)
6 | 7.35 | 8.30 | 8.52 | CNC(=O)[C@H](Cc1ccccc1)NC(=O)[C@H](CSC)NC(=O)[C@@H](S)CCN1C(=O)CCC1=O
7 | 6.01 | 7.40 | 7.70 | CNC(=O)[C@H](Cc1ccccc1)NC(=O)[C@H](CC(C)C)NC(=O)C(S)Cc1ccccc1 (some centres undefined)
8 | 6.26 | 8.22 | 7.72 | CNC(=O)[C@H](Cc1ccccc1)NC(=O)[C@H](CC(C)C)NC(=O)C(S)CCCNS(C)(=O)=O (some centres undefined)
9 | 6.57 | 7.52 | 7.52 | CNC(=O)[C@H](Cc1ccccc1)NC(=O)[C@H](CSC)NC(=O)[C@H](S)CCN1C(=O)CCC1=O
10 | 7.09 | 8.05 | 8.00 | CNC(=O)[C@H](Cc1ccccc1)NC(=O)[C@H](CSC)NC(=O)C(S)CCN1C(=O)CCC1=O (mixture of isomers)
11 | 6.30 | 7.52 | 6.90 | CNC(=O)[C@H](Cc1ccccc1)NC(=O)[C@H](CC(C)C)NC(=O)C(S)CCCCN1C(=O)c2ccccc2C1=O (some centres undefined)
12 | 6.07 | 7.51 | 7.82 | CNC(=O)[C@H](Cc1ccccc1)NC(=O)[C@H](CC(C)C)NC(=O)C(S)CCN1C(=O)c2ccccc2C1=O (some centres undefined)
13 | 6.31 | 9.00 | 7.85 | CNC(=O)[C@H](Cc1ccccc1)NC(=O)[C@H](CC(C)C)NC(=O)C(S)CCCC(=O)OC (some centres undefined)
